Results on two compounds are retold here after article PMC2606880 (Diabetes, 2009).

In data set [1] the test system is conscious dogs. Type of data set: in vivo, dog. The settings on record: vildagliptin-treated group.
Another data set relates to type 2 diabetic patients. Particulars: 4 weeks of treatment; cited from earlier work.
Data set [2] has as its system conscious dogs. In words: Plasma pancreatic hormone levels. The data set is classed as in vivo, dog. The settings on record: vildagliptin-treated group.
Data set [3] concerns conscious dogs. Briefly: Tolerability of oral vildagliptin. The data set is classed as in vivo, dog. The settings on record: vildagliptin 1 mg/kg by stomach gavage; all animals.
Data set [4] concerns conscious dogs. The data set is classed as in vivo, dog. Particulars: for Net hepatic alanine uptake / Net hepatic glycerol uptake / Plasma free fatty acid level: vildagliptin 1 mg/kg oral, mean ± SE, n = 6.
The conditions of data set [5]: cited from earlier work.
The mark [6] stands for this setting: basal period, mean ± SEM, n = 6.

The structures appear in SMILES notation. Like-named read-outs stand apart in the source and are kept apart here.

For the compound `N#C[C@@H]1CCCN1C(=O)CNC12CC3CC(CC(O)(C3)C1)C2` [Vildagliptin], the “increase of nonhepatic glucose uptake from basal” value with conscious dogs [1] (basal period to last 3 h, not significant vs control) stood at 8.1 ± 1.4 mg/kg/min. In the data set with conscious dogs [1] (setting [6]), the “Nonhepatic glucose uptake (non-HGU)” value is 2.3 ± 0.3 mg/kg/min and the “net hepatic glucose balance (positive = output)” value was found to be 2.1 ± 0.2 mg/kg/min. Besides, in the data set with conscious dogs [1] (last 3 h, mean ± SEM, n = 6), the “Nonhepatic glucose uptake (non-HGU)” value was 10.4 ± 1.4 mg/kg/min. The “net hepatic glucose fractional extraction” value in the data set on conscious dogs [1] (last 3 h, mean ± SEM, n = 6, P < 0.05) is reported as 0.06 ± 0.01. Moreover, the “increase in the rise in active GLP-1 after meals” value in the data set on type 2 diabetic patients is given as “twofold or greater increase”. In addition, the “increase of arterial plasma C-peptide” value in the data set with conscious dogs [2] (basal period to last 3 h) was found to be 3.6 fold. For the same compound, in the data set on conscious dogs [2] (setting [6]), the “Hepatic sinusoidal plasma glucagon level” value was 43 ± 3 pg/mL, the “arterial plasma C-peptide level” value amounted to 0.39 ± 0.04 ng/mL, the arterial plasma insulin is on record as 6 ± 1 μU/ml and the “hepatic sinusoidal plasma insulin” value worked out at 17 ± 3 μU/ml. In the data set on conscious dogs [2] (experimental period, mean ± SEM, n = 6), the “Hepatic sinusoidal plasma glucagon level” value was found to be 23 ± 4 pg/mL. In addition, in the data set with conscious dogs [2], the “increase of arterial plasma insulin from basal period to last 3 h” value is listed as 5.5 fold and the “increase of hepatic sinusoidal plasma insulin from basal period to last 3 h” value is recorded as 5.4 fold. In the data set with conscious dogs [2] (not statistically significant), the “average hepatic insulin level greater than in the control group” value was found to be 15 μU/ml. Further, the “increase in arterial and portal vein GLP-1 concentrations” value (vildagliptin 1 mg/kg oral vs control) is 70%. In addition, the tolerability entry in the data set with conscious dogs [3] is on record as “well tolerated”. The “Free fatty acid and glycerol levels lower than in control” value in the data set on conscious dogs [4] (basal period, vildagliptin-treated group) is recorded as around 25%. In addition, in the data set with conscious dogs [4] (experimental period 60 min), the “Net hepatic alanine uptake” value was 1.8 ± 0.2 µmol/kg/min, the “Net hepatic glycerol uptake” value is 0.5 ± 0.2 µmol/kg/min and the “Plasma free fatty acid level” value stood at 111 ± 23 µmol/L. For the same compound, in the data set with conscious dogs [4] (experimental period 120 min), the “Net hepatic alanine uptake” value came to 2.0 ± 0.5 µmol/kg/min, the “Net hepatic glycerol uptake” value was 0.5 ± 0.1 µmol/kg/min and the “Plasma free fatty acid level” value came to 88 ± 26 µmol/L. For the same compound, in the data set on conscious dogs [4] (experimental period 180 min), the “Net hepatic alanine uptake” value stood at 2.2 ± 0.2 µmol/kg/min, the “Net hepatic glycerol uptake” value turned out to be 0.4 ± 0.2 µmol/kg/min and the “Plasma free fatty acid level” value came out at 71 ± 25 µmol/L. For the same compound, in the data set on conscious dogs [4] (experimental period 210 min), the “Net hepatic alanine uptake” value is 2.4 ± 0.2 µmol/kg/min, the “Net hepatic glycerol uptake” value worked out at 0.5 ± 0.2 µmol/kg/min and the “Plasma free fatty acid level” value stood at 82 ± 31 µmol/L. For the same compound, in the data set on conscious dogs [4] (experimental period 240 min), the “Net hepatic alanine uptake” value was found to be 2.5 ± 0.3 µmol/kg/min, the “Net hepatic glycerol uptake” value is 0.3 ± 0.1 µmol/kg/min and the “Plasma free fatty acid level” value was found to be 66 ± 15 µmol/L.
On to `CC[C@H](C)[C@H](NC(=O)[C@H](Cc1ccccc1)NC(=O)[C@H](CCC(=O)O)NC(=O)[C@H](CCCCN)NC(=O)[C@H](C)NC(=O)[C@H](C)NC(=O)[C@H](CCC(N)=O)NC(=O)CNC(=O)[C@H](CCC(=O)O)NC(=O)[C@H](CC(C)C)NC(=O)[C@H](Cc1ccc(O)cc1)NC(=O)[C@H](CO)NC(=O)[C@H](CO)NC(=O)[C@@H](NC(=O)[C@H](CC(=O)O)NC(=O)[C@H](CO)NC(=O)[C@@H](NC(=O)[C@H](Cc1ccccc1)NC(=O)[C@@H](NC(=O)CNC(=O)[C@H](CCC(=O)O)NC(=O)[C@H](C)NC(=O)[C@@H](N)Cc1c[nH]cn1)[C@@H](C)O)[C@@H](C)O)C(C)C)C(=O)N[C@@H](C)C(=O)N[C@@H](Cc1c[nH]c2ccccc12)C(=O)N[C@@H](CC(C)C)C(=O)N[C@H](C(=O)N[C@@H](CCCCN)C(=O)NCC(=O)N[C@@H](CCCNC(=N)N)C(N)=O)C(C)C` [GLP-1, Glucagon-like peptide 1], for which the “share of the kidneys in the degradation of intact GLP-1” value in data set [5] is 10–20%. The clearance (dog, in vivo, iv) turned out to be 38 ± 5 mL/min/kg.

One may read the clearance as the rate of elimination divided by the concentration. A high value points to a high capacity for elimination.
